Assay results published in the NIST ThermoML archive (doi:10.1016/j.tca.2019.178383).
± gives the expanded uncertainty stated by the source.

Experiment: xn = mol fraction of the nth substance listed
Conditions: for surface tension liquid-gas: Maximal bubble pressure; for mass density: 100 kPa, Liquid, Vibrating tube method

CCn1cc[n+](CCOC)c1.O=S(=O)([O-])C(F)(F)F + CCO
Conditions	mass density [kg/m3]	surface tension liquid-gas [mN/m]
288.15 K, x1 = 0.0996	965.057 ± 3.1	23.1 ± 1.5
288.15 K, x1 = 0.1999	1071.98 ± 2.2	24.2 ± 1.5
288.15 K, x1 = 0.2996	1144.79 ± 1.8	25.6 ± 1.5
288.15 K, x1 = 0.3984	1196.95 ± 1.6	27.1 ± 1.5
288.15 K, x1 = 0.4991	1237.58 ± 1.5	28.7 ± 1.5
288.15 K, x1 = 0.6026	1270.25 ± 1.4	30.5 ± 1.5
288.15 K, x1 = 0.6991	1295.01 ± 1.4	31.8 ± 1.5
288.15 K, x1 = 0.797	1315.78 ± 1.4	33.4 ± 1.5
288.15 K, x1 = 0.8995	1333.85 ± 1.4	34.9 ± 1.5
288.15 K, x1 = 1	1348.94 ± 1.4	36.3 ± 1.5
293.15 K, x1 = 0.0996	960.722 ± 3.1	22.6 ± 1.5
293.15 K, x1 = 0.1999	1067.62 ± 2.2	23.8 ± 1.5
293.15 K, x1 = 0.2996	1140.44 ± 1.8	25.2 ± 1.5
293.15 K, x1 = 0.3984	1192.61 ± 1.6	26.7 ± 1.5
293.15 K, x1 = 0.4991	1233.26 ± 1.5	28.3 ± 1.5
293.15 K, x1 = 0.6026	1265.94 ± 1.4	30.1 ± 1.5
293.15 K, x1 = 0.6991	1290.72 ± 1.4	31.4 ± 1.5
293.15 K, x1 = 0.797	1311.49 ± 1.4	33.1 ± 1.5
293.15 K, x1 = 0.8995	1329.57 ± 1.4	34.7 ± 1.5
293.15 K, x1 = 1	1344.66 ± 1.4	36.1 ± 1.5
298.15 K, x1 = 0.0996	956.38 ± 3.1	22.1 ± 1.5
298.15 K, x1 = 0.1999	1063.27 ± 2.2	23.3 ± 1.5
298.15 K, x1 = 0.2996	1136.09 ± 1.8	24.8 ± 1.5
298.15 K, x1 = 0.3984	1188.29 ± 1.6	26.3 ± 1.5
298.15 K, x1 = 0.4991	1228.95 ± 1.5	27.9 ± 1.5
298.15 K, x1 = 0.6026	1261.65 ± 1.4	29.7 ± 1.5
298.15 K, x1 = 0.6991	1286.44 ± 1.4	31.1 ± 1.5
298.15 K, x1 = 0.797	1307.22 ± 1.4	32.8 ± 1.5
298.15 K, x1 = 0.8995	1325.31 ± 1.4	34.4 ± 1.5
298.15 K, x1 = 1	1340.41 ± 1.4	35.8 ± 1.5
303.15 K, x1 = 0.0996	952.028 ± 3.1	21.6 ± 1.5
303.15 K, x1 = 0.1999	1058.92 ± 2.2	22.8 ± 1.5
303.15 K, x1 = 0.2996	1131.76 ± 1.8	24.4 ± 1.5
303.15 K, x1 = 0.3984	1183.97 ± 1.6	25.8 ± 1.5
303.15 K, x1 = 0.4991	1224.66 ± 1.5	27.5 ± 1.5
303.15 K, x1 = 0.6026	1257.38 ± 1.4	29.3 ± 1.5
303.15 K, x1 = 0.6991	1282.19 ± 1.4	30.7 ± 1.5
303.15 K, x1 = 0.797	1302.98 ± 1.4	32.5 ± 1.5
303.15 K, x1 = 0.8995	1321.08 ± 1.4	34.1 ± 1.5
303.15 K, x1 = 1	1336.17 ± 1.4	35.5 ± 1.5
308.15 K, x1 = 0.0996	947.665 ± 3.1	21.2 ± 1.5
308.15 K, x1 = 0.1999	1054.56 ± 2.2	22.3 ± 1.5
308.15 K, x1 = 0.2996	1127.43 ± 1.8	23.9 ± 1.5
308.15 K, x1 = 0.3984	1179.66 ± 1.6	25.4 ± 1.5
308.15 K, x1 = 0.4991	1220.38 ± 1.5	27.1 ± 1.5
308.15 K, x1 = 0.6026	1253.12 ± 1.4	28.9 ± 1.5
308.15 K, x1 = 0.6991	1277.95 ± 1.4	30.3 ± 1.5
308.15 K, x1 = 0.797	1298.75 ± 1.4	32 ± 1.5
308.15 K, x1 = 0.8995	1316.86 ± 1.4	33.8 ± 1.5
308.15 K, x1 = 1	1331.96 ± 1.4	35.3 ± 1.5
313.15 K, x1 = 0.0996	943.285 ± 3.1	20.8 ± 1.5
313.15 K, x1 = 0.1999	1050.2 ± 2.2	21.8 ± 1.5
313.15 K, x1 = 0.2996	1123.1 ± 1.8	23.5 ± 1.5
313.15 K, x1 = 0.3984	1175.37 ± 1.6	25 ± 1.5
313.15 K, x1 = 0.4991	1216.11 ± 1.5	26.7 ± 1.5
313.15 K, x1 = 0.6026	1248.89 ± 1.4	28.6 ± 1.5
313.15 K, x1 = 0.6991	1273.73 ± 1.4	30 ± 1.5
313.15 K, x1 = 0.797	1294.54 ± 1.4	31.8 ± 1.5
313.15 K, x1 = 0.8995	1312.66 ± 1.4	33.5 ± 1.5
313.15 K, x1 = 1	1327.77 ± 1.4	35.1 ± 1.5
318.15 K, x1 = 0.0996	938.889 ± 3.1	20.3 ± 1.5
318.15 K, x1 = 0.1999	1045.85 ± 2.2	21.4 ± 1.5
318.15 K, x1 = 0.2996	1118.78 ± 1.8	23 ± 1.5
318.15 K, x1 = 0.3984	1171.08 ± 1.6	24.6 ± 1.5
318.15 K, x1 = 0.4991	1211.87 ± 1.5	26.3 ± 1.5
318.15 K, x1 = 0.6026	1244.66 ± 1.4	28.2 ± 1.5
318.15 K, x1 = 0.6991	1269.52 ± 1.4	29.6 ± 1.5
318.15 K, x1 = 0.797	1290.35 ± 1.4	31.5 ± 1.5
318.15 K, x1 = 0.8995	1308.47 ± 1.4	33.2 ± 1.5
318.15 K, x1 = 1	1323.6 ± 1.4	34.9 ± 1.5
